Results from article PMC9238401, “Peptide Conjugates Derived from flg15, Pep13, and PIP1 That Are Active against Plant-Pathogenic Bacteria and Trigger Plant Defense Responses” (Applied and Environmental Microbiology, 2022).
Non-standard residues stand in square brackets, D forms with d. Residues, ends and D or L forms follow the SMILES beside them. No end group written: not given here. *: point of attachment. Butyryl = CCCC(=O)*

What was measured:
[1] = tested on: Pseudomonas syringae pv. syringae EPS94; assay: In vitro growth inhibition (MIC); type: cell-based; details: TSB, 25°C, 48 h, OD 600 nm (Bioscreen C), three replicates, experiment repeated twice; MIC given as range
Experimental: (§1) Peptide conjugates were tested for in vitro growth inhibition of the plant-pathogenic bacteria E. amylovora PMV6076, Xanthomonas arboricola pv. pruni CFBP5563, X. fragariae Xf349-9A, X. axonopodis pv. vesicatoria 2133-2, P. syringae pv. actinidiae Psa3700.1.1, and P. syringae pv. syringae EPS94 (Fig. 1, Table SA). The corresponding monomers (flg15, BP13, Pep13, PIP1, BP16, BP100, BP143, BP387, BP475, and KSL-W) were included for comparison.
(§2) The following plant-pathogenic bacterial strains were used: Erwinia amylovora PMV6076 (Institut National de la Recherche Agronomique, Angers, France), Pseudomonas syringae pv. syringae EPS94 (Institut de Tecnologia Agroalimentària, University of Girona, Spain), Xanthomonas axonopodis pv. vesicatoria 2133-2, X. axonopodis pv. vesicatoria Xav206 (Xav) (D. F. Ritchie, Department of Plant Pathology, North Carolina State University), Pseudomonas syringae pv. actinidiae Psa3700.1.1, Xanthomonas fragariae Xf349-9A (Instituto Valenciano de Investigaciones Agrarias, Valencia, Spain), and Xanthomonas arboricola pv. pruni CFBP5563 (Collection Française de Bactéries Associées aux Plantes, Angers, France). All bacteria except for X. fragariae were stored in Luria Bertani (LB) broth supplemented with glycerol (20%) and maintained at −80°C. For X. fragariae, medium B ([80]) was used instead of LB. E. amylovora, X. arboricola pv. pruni, P. syringae pv. syringae, and P. syringae pv. actinidiae were scraped from the agar medium after growing for 24 h at 25°C, and X. axonopodis pv. vesicatoria and X. fragariae, after growing for 48 h at 25°C. The cell material was suspended in sterile water to obtain a suspension of 10^8 CFU mL^−1.
(§3) Lyophilized peptides were solubilized in sterile Milli-Q water to a final concentration of 1 mM and filter-sterilized through a 0.22-μm pore filter. […] Then, 20 μL of each dilution were mixed in a microtiter plate well with 20 μL of the corresponding suspension of the bacterial indicator, 160 μL of Trypticase soy broth (TSB) (bioMérieux, France) to a total volume of 200 μL. Three replicates for each combination of strain, compound, and concentration were used. Microbial growth was determined by optical density measurement at 600 nm (Bioscreen C; Labsystem, Helsinki, Finland). Microplates were incubated at 25°C with 20 s of shaking before hourly absorbance measurement for 48 h. The experiment was repeated twice. The MIC was taken as the lowest compound concentration with no growth at the end of the experiment.

[2] = tested on: Xanthomonas fragariae Xf349-9A; assay: In vitro growth inhibition (MIC); type: cell-based; details: TSB, 25°C, 48 h, OD 600 nm (Bioscreen C), three replicates, experiment repeated twice; MIC given as range
Experimental: as §1, §2, §3

[3] = tested on: Xanthomonas arboricola pv. pruni CFBP5563; assay: In vitro growth inhibition (MIC); type: cell-based; details: TSB, 25°C, 48 h, OD 600 nm (Bioscreen C), three replicates, experiment repeated twice; MIC given as range
Experimental: as §1, §2, §3

[4] = tested on: Pseudomonas syringae pv. actinidiae Psa3700.1.1; assay: In vitro growth inhibition (MIC); type: cell-based; details: TSB, 25°C, 48 h, OD 600 nm (Bioscreen C), three replicates, experiment repeated twice; MIC given as range
Experimental: as §1, §2, §3

[5] = tested on: Erwinia amylovora PMV6076; assay: In vitro growth inhibition (MIC); type: cell-based; details: TSB, 25°C, 48 h, OD 600 nm (Bioscreen C), three replicates, experiment repeated twice; MIC = lowest concentration with no growth, given as range
Experimental: as §1, §2, §3

[6] = tested on: tobacco leaves; assay: Effect of peptide infiltration on tobacco leaves (phytotoxicity); type: in vivo
Experimental: Peptide conjugates were also assayed for their toxicity in tobacco leaves (Fig. 3, Table SC). After 48 h of infiltration, melittin caused a necrotic area of 0.70 and 2.17 cm in diameter at 50 and 250 μM, respectively. The monomers were not phytotoxic at those concentrations; all of them led to lesions of ≤1.2 cm at 250 μM. All peptide conjugates were also less phytotoxic than melittin, causing necrotic lesions between 0.26 and 1.67 cm in diameter at 250 μM. In particular, 15 of the 30 conjugates led to a necrotic area of <1 cm at this concentration. In general, sequences incorporating BP13 were among the most phytotoxic.
Peptide conjugates were evaluated for their effect on infiltration on tobacco leaves as described previously ([41]). Peptide solutions of 50, 150, and 250 μM were infiltrated (100 μL) into the mesophylls of fully expanded tobacco leaves. Infiltrations were carried out in a single leaf, and for each peptide and dose, at least three leaves randomly distributed in different plants were inoculated. Control infiltrations with water (negative control) or melittin (positive control) at the same molar concentration were performed. The appearance of symptoms on the leaves was followed for 48 h after infiltration and measured as lesion diameter.

[7] = HPLC retention time as indicator of relative hydrophobicity; type: physicochemical; details: chromatographic, Kromasil 100 C18 (4.6 mm × 40 mm, 3 μm), linear gradient 2 to 100% B over 12 min, 1 mL/min; A 0.1% aqueous TFA, B 0.1% TFA in CH3CN; used as indicator of relative hydrophobicity
Experimental: The parameters related to the structure of the peptide conjugates (sequence, charge, hydrophobic ratio [HR], and HPLC retention time), as well as their physicochemical properties (grand average hydropathicity [GRAVY] and hydrophobic moment [<μH>]) obtained from the online programs ProtParam (Expasy server) and HeliQuest are included in Table 1.
Peptides were analyzed under standard analytical HPLC conditions. Method A: peptides were analyzed with a Dionex liquid chromatography instrument composed of a UV/Vis Dionex UVD170U detector, a P680 Dionex pump, an ASI-100 Dionex automatic injector, and Chromeleon 6.60 software. Detection was performed at a wavelength of 220 nm. Solvent A was 0.1% aqueous trifluoroacetic acid (TFA), and solvent B was 0.1% TFA in CH3CN. Analyses were carried out with a Kromasil 100 C18 (4.6 mm × 40 mm, 3 μm) column with a linear gradient of 2 to 100% B over 7 min at a flow rate of 1 mL/min. Method B: peptides were analyzed with a 1260 Infinity II liquid chromatography instrument (Agilent Technologies) composed of a diode array detector HS, a quaternary pump VL, a 1260 vial sampler, and OpenLab CDS ChemStation software. Analyses were carried out with a Kromasil 100 C18 (4.6 mm × 40 mm, 3 μm) column with a linear gradient of 2 to 100% B over 12 min at a flow rate of 1 mL/min.

[8] = tested on: Xanthomonas axonopodis pv. vesicatoria 2133-2; details: TSB, 25°C, 48 h, OD 600 nm (Bioscreen C), three replicates, experiment repeated twice; MIC given as range
Description: The corresponding monomers (flg15, BP13, Pep13, PIP1, BP16, BP100, BP143, BP387, BP475, and KSL-W) were included for comparison.
as §2, §3

[9] = tested on: horse erythrocytes; details: TRIS buffer pH 7.2, 1 h, 37°C, absorbance 540 nm, relative to melittin 100 μM, ± confidence interval (α = 0.05)
Experimental: The toxicity of peptide conjugates to eukaryotic cells was determined as the ability to lyse erythrocytes (Table SB).
The hemolytic activity of the compounds was evaluated by determining hemoglobin release from erythrocyte suspensions of horse blood (5% vol/vol) (Oxoid) as previously described ([45]). Blood was centrifuged at 6000g for 5 min, washed three times with TRIS buffer (10 mM TRIS, 150 mM NaCl, pH 7.2) and diluted 10 times. Compounds were solubilized in TRIS buffer at 750, 500, 300, and 100 μM and mixed with horse erythrocytes (1:1 vol/vol). The mixture was incubated with continuous shaking for 1 h at 37°C. Then, the tubes were centrifuged at 3500g for 10 min, 80-μL aliquots of the supernatant were transferred to 100-well microplates (Bioscreen) and diluted with 80 μL water, and the absorbance measured at 540 nm (Bioscreen). […] The percentage of hemolysis (H) was calculated using the equation H = 100 × ([Op − Ob]/[Om − Ob]), where Op is the density for a given compound concentration, Ob is that for the buffer, and Om is that for the melittin positive control.

[10] = 100 μL infiltrated into mesophyll, lesion diameter 48 h after infiltration, at least three leaves, ± confidence interval (α = 0.05)

Compound	MIC, Pss [1] [µM]	MIC, Xf [2] [µM]	MIC, Xap [3] [µM]	MIC, Psa [4] [µM]	MIC, Ea [5] [µM]	Size of the lesions in infiltrated tobacco leaves at 50 μM [6, 10] [cm]	Size of the lesions in infiltrated tobacco leaves at 150 μM [6, 10] [cm]	Size of the lesions in infiltrated tobacco leaves at 250 μM [6, 10] [cm]	tR (min), HPLC retention time (method B) [7] [min]	MIC, Xav [8] [µM]	Percent hemolysis at 50 μM [9] [%]	Percent hemolysis at 150 μM [9] [%]	Percent hemolysis at 250 μM [9] [%]	Percent hemolysis at 375 μM [9] [%]	Size of the lesions in infiltrated tobacco leaves at 50 μM ([6]; in vivo) [cm]	Size of the lesions in infiltrated tobacco leaves at 150 μM ([6]; in vivo) [cm]	Size of the lesions in infiltrated tobacco leaves at 250 μM ([6]; in vivo) [cm]
CCCC(=O)NCCCC[C@H](NC(=O)[C@H](CCCCN)NC(=O)[C@H](CC(C)C)NC(=O)[C@@H](NC(=O)[C@H](CCCCN)NC(=O)[C@H](CCCCN)NC(=O)[C@@H](Cc1ccccc1)NC(=O)[C@H](CC(C)C)NC(=O)[C@H](CCCCN)NC(=O)[C@H](CCCCN)NC(C)=O)[C@@H](C)CC)C(=O)N[C@@H](CC(C)C)C(=O)N[C@@H](Cc1ccc(O)cc1)C(=O)NCC(=O)N[C@H](C(=O)N[C@@H](Cc1c[nH]cn1)C(=O)N[C@H](C(=O)N[C@@H](Cc1c[nH]cn1)C(N)=O)[C@@H](C)O)[C@@H](C)CC [BP475-PIP1] (Ac-KKL[dF]KKILKK(Butyryl)LYGIHTH-NH2)	6.2 to 12.5	1.6 to 3.1	0.8 to 1.6	1.6 to 3.1	3.1 to 6.2	0.47 ± 0.06	1.40 ± 0.00	1.67 ± 0.13	6.28	3.1 to 6.2	9 ± 1.0	18 ± 1.4	26 ± 2.8	39 ± 2.0			
Ac-KKLFKKIK(COC3H7)KYL-RINSAKDDAAGLQIA-OH [BP387-flg15]	3.1 to 6.2	6.2 to 12.5	1.6 to 3.1	6.2 to 12.5	25 to 50	0.23 ± 0.24	0.33 ± 0.35	0.93 ± 0.40	5.84	3.1 to 6.2	3 ± 0.3	5 ± 0.9	7 ± 0.2	9 ± 2.5			
KKLfKKILKYL-FKLFKKILKVL-NH2 [BP143-BP13]	> 50	6.2 to 12.5	12.5 to 25	25 to 50	> 50	0.18 ± 0.10	0.40 ± 0.14	1.14 ± 0.36		6.2 to 12.5	100 ± 6.1	100 ± 3.6	100 ± 7.1	100 ± 7.0			
RINSAKDDAAGLQIA-KKLFKKILKYL-NH2 [flg15-BP100]	12.5 to 25	6.2 to 12.5	0.8 to 1.6		6.2 to 12.5	0.46 ± 0.10	0.80 ± 0.22	1.02 ± 0.24	6.29	0.8 to 1.6	48 ± 4.1	52 ± 4.3	63 ± 2.4	66 ± 9.2			
VWNQPVRGFKVYE-OH [Pep13]	> 50	> 50	> 50	> 50	> 50					> 50	0 ± 0.6	0 ± 0.3	2 ± 0.1	0 ± 0.1	0 ± 0	0 ± 0	0 ± 0
